The text below walks through data of patent US9498467B2, “Treatment of chronic neutrophilic leukemia (CNL) and atypical chronic myeloid leukemia (aCML) by inhibitors of JAK1” (Incyte Corporation, priority 2014, dated 2016).

The subject of experiment [1] is CNL carrying a JAK-activating CSF3R mutation. The following applies: one patient with CNL carrying a JAK-activating CSF3R mutation; cited from earlier work.
The subject of experiment [2] is GCSF induced pSTAT3 in human neutrophils. The experiment in a line: JAK human neutrophil assay (pSTAT3 ELISA). The following applies: 0.25 h, read-out: IC50 (inhibition of pSTAT3). In general terms: An ELISA detects its analyte on a solid surface through an enzyme-linked reagent.
The target in experiment [3] is T1, human JAK1 (a.a. 837-1142) (Homo sapiens, UniProt P23458).
T1 construct: human JAK1 (a.a. 837-1142); made in house; host or cells: insect cells (baculovirus)
The experiment in a line: In vitro JAK kinase assay (HTRF), JAK1. It is filed as biochemical. The following applies: 1 mM ATP.

The target of experiment [4] is T2, human JAK2 (a.a. 828-1132) (Homo sapiens, UniProt O60674).
T2 construct: JAK2 (a.a. 828-1132); made in house; host or cells: insect cells (baculovirus)
The experiment in a line: In vitro JAK kinase assay (HTRF), JAK2. The experiment is classed as biochemical. The following applies: ratio of IC50s at 1 mM ATP.

T2 sequence (O60674 828-1132): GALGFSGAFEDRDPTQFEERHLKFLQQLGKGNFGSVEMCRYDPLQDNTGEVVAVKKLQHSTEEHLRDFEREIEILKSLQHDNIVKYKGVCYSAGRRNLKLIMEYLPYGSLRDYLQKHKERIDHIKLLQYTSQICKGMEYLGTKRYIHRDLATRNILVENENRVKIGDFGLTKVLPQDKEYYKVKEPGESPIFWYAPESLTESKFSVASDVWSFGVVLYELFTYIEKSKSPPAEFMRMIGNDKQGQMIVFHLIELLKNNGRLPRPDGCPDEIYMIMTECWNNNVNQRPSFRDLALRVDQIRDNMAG
T1 sequence (P23458 849-1154): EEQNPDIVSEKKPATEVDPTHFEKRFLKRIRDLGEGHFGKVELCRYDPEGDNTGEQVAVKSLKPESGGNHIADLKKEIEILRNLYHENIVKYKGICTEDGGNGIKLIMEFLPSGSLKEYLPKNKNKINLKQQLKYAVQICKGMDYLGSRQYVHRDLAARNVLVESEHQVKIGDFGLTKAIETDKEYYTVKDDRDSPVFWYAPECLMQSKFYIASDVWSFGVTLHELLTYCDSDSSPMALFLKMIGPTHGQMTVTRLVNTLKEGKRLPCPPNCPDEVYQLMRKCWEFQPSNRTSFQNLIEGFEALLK

As to `N#CCC(C1CCCC1)n1cc(-c2ncnc3[nH]ccc23)cn1` (stereo in doubt) [ruxolitinib, (3R)-3-cyclopentyl-3-[4-(7H-pyrrolo[2,3-d]pyrimidin-4-yl)-1H-pyrazol-1-yl]propanenitrile, reference compound], in experiment [1], the clinical improvement result was “Marked clinical improvement”. Moreover, in experiment [2], the IC50 was less than 100 nM.

Regarding `C[C@@H](O)c1nc2cnc3ccsc3c2n1[C@H]1CC[C@H](CC#N)OC1` [Compound 1, ((2R,5S)-5-{2-[(1R)-1-hydroxyethyl]-1H-imidazo[4,5-d]thieno[3,2-b]pyridin-1-yl}tetrahydro-2H-pyran-2-yl)acetonitrile], the IC50 in experiment [3] and in experiment [2] was less than 100 nM in each case. Further, the JAK2/JAK1 in experiment [4] was more than 10.

Regarding `Cc1n[nH]c(C)c1-c1cnn(C2(CC#N)CN(c3cc(F)c(C(=O)N[C@@H](C)C(F)(F)F)cc3F)C2)c1` [Compound 2, 4-[3-(cyanomethyl)-3-(3′,5′-dimethyl-1H,1′H-4,4′-bipyrazol-1-yl)azetidin-1-yl]-2,5-difluoro-N-[(1S)-2,2,2-trifluoro-1-methylethyl]benzamide], the IC50 in experiment [2] is less than 100 nM.

For `N#CCC1(n2cc(-c3ncnc4[nH]ccc34)cn2)CN(C2CCN(C(=O)c3ccnc(C(F)(F)F)c3F)CC2)C1` [Compound 7, {1-{1-[3-Fluoro-2-(trifluoromethyl)iso-nicotinoyl]piperidin-4-yl}-3-[4-(7H-pyrrolo[2,3-d]pyrimidin-4-yl)-1H-pyrazol-1-yl]azetidin-3-yl}acetonitrile], the IC50 in experiment [3] is less than 10 nM; in experiment [2], less than 100 nM. In addition, in experiment [4], the JAK2/JAK1 is more than 10.

Molecule `C[C@@H](CO)NCc1cc(OC2CCN([C@H]3C[C@](CC#N)(n4cc(-c5ncnc6[nH]ccc56)cn4)C3)CC2)nc(C(F)(F)F)c1` [Compound 23, {trans-3-(4-{[4-({[(1S)-2-hydroxy-1-methylethyl]amino}methyl)-6-(trifluoromethyl)pyridin-2-yl]oxy}piperidin-1-yl)-1-[4-(7H-pyrrolo[2,3-d]pyrimidin-4-yl)-1H-pyrazol-1-yl]cyclobutyl} acetonitrile] gave an IC50 in experiment [3] of less than 10 nM. The JAK2/JAK1 in experiment [4] is on record as more than 10.

In turn, `C[C@@H](O)CNCc1cc(OC2CCN([C@H]3C[C@](CC#N)(n4cc(-c5ncnc6[nH]ccc56)cn4)C3)CC2)nc(C(F)(F)F)c1` [Compound 24, {trans-3-(4-{[4-({[(2R)-2-hydroxypropyl]amino}methyl)-6-(trifluoromethyl)pyridin-2-yl]oxy}piperidin-1-yl)-1-[4-(7H-pyrrolo[2,3-d]pyrimidin-4-yl)-1H-pyrazol-1-yl]cyclobutyl} acetonitrile] had an IC50 in experiment [3] of less than 10 nM. Further, the JAK2/JAK1 in experiment [4] is given as more than 10.

In the case of `C[C@H](O)CNCc1cc(OC2CCN([C@H]3C[C@](CC#N)(n4cc(-c5ncnc6[nH]ccc56)cn4)C3)CC2)nc(C(F)(F)F)c1` [Compound 25, {trans-3-(4-{[4-({[(2S)-2-hydroxypropyl]amino}methyl)-6-(trifluoromethyl)pyridin-2-yl]oxy}piperidin-1-yl)-1-[4-(7H-pyrrolo[2,3-d]pyrimidin-4-yl)-1H-pyrazol-1-yl]cyclobutyl} acetonitrile], the IC50 in experiment [3] was less than 10 nM. Besides, the JAK2/JAK1 in experiment [4] is on record as more than 10.

Molecule `N#CC[C@]1(n2cc(-c3ncnc4[nH]ccc34)cn2)C[C@H](N2CCC(Oc3cc(CCO)cc(C(F)(F)F)n3)CC2)C1` [Compound 26, {trans-3-(4-{[4-(2-hydroxyethyl)-6-(trifluoromethyl)pyridin-2-yl]oxy}piperidin-1-yl)-1-[4-(7H-pyrrolo[2,3-d]pyrimidin-4-yl)-1H-pyrazol-1-yl]cyclobutyl} acetonitrile] showed an IC50 in experiment [3] of less than 10 nM. For the same molecule, the JAK2/JAK1 in experiment [4] is reported as more than 10.

A word on the IC50: it is the concentration needed to halve the response being measured.
